Where two headings read alike, the source gives them in different places.
How the values were obtained:
HGC27 tumors = settings: iv, 0.5 mg/kg
H82 tumors = assay: In vivo xenograft, human lung (SCLC) H82
H526 tumors = assay: In vivo xenograft, human lung (SCLC) H526
Experimental: Female athymic nu/nu mice (Harlan Laboratories Models, S. L. Barcelona, Spain or Envigo, Spain) were utilized for all experiments. Animal were housed in individually ventilated cages Sealsafe® Plus, Techniplast S.P.A.), up to ten per cage on a 12-hour light-dark cycle at 21-23° C. and 40-60% humidity. Mice were allowed free access to irradiated standard rodent diet (Tecklad 2914C) and sterilized water. Animals were acclimated for at least 5 days prior to tumor implantation with a tumor cell suspension.
H526 cells were grown as a suspension and maintained by addition of fresh medium, as the cell density increases, every 2 to 3 days. Every week, culture was reestablished by centrifugation of the suspension with subsequent resuspension in fresh medium at a concentration of 1×10^5 cell/mL. Each animal was subcutaneously implanted (on the right flank using 26 G needle and a 1 cc syringe) at 4-6 weeks of age with 5×10^6 H526 cells suspended in 0.05 mL of a solution consisting of 50% Matrigel® (Corning Incorporated Life Sciences) and 50% medium without serum or antibiotics.
Treatment tolerability was assessed by monitoring body weight evolution, clinical signs of systemic toxicity, as well as evidences of local damage in the injection site.
Treatments producing >20% lethality and/or 20% net body weight loss were considered toxic.

COc1c(C)cc2c(c1O)[C@@H]1[C@@H]3[C@@H]4SC[C@]5(N[C@@H](C)Cc6c5[nH]c5ccccc65)C(=O)OC[C@@H](c5c6c(c(C)c(OC(C)=O)c54)OCO6)N3[C@@H](O)[C@H](C2)N1C [D]
Median Tumor Volume (HGC27 tumors; 384 h): 1440.2 mm^3 | Median Tumor Volume (HGC27 tumors; 456 h): 1717.9 mm^3 | Median Tumor Volume (HGC27 tumors; 504 h): 2043.4 mm^3 | Median Tumor Volume (H82 tumors; Table 33, Day 0.0, iv Days 0, 7, 14, 12-R 0.05 mg/kg, Compound D 0.5 mg/kg): 169.4 mm^3 | Median Tumor Volume (H82 tumors; Table 33, Day 2.0, iv Days 0, 7, 14, 12-R 0.05 mg/kg, Compound D 0.5 mg/kg): 340.6 mm^3 | Median Tumor Volume (H82 tumors; Table 33, Day 5.0, iv Days 0, 7, 14, 12-R 0.05 mg/kg, Compound D 0.5 mg/kg): 443.3 mm^3 | Median Tumor Volume (H82 tumors; Table 33, Day 7.0, iv Days 0, 7, 14, 12-R 0.05 mg/kg, Compound D 0.5 mg/kg): 496.2 mm^3 | Median Tumor Volume (H82 tumors; Table 33, Day 9.0, iv Days 0, 7, 14, 12-R 0.05 mg/kg, Compound D 0.5 mg/kg): 614.1 mm^3 | Median Tumor Volume (H82 tumors; Table 33, Day 12.0, iv Days 0, 7, 14, 12-R 0.05 mg/kg, Compound D 0.5 mg/kg): 665.5 mm^3 | Median Tumor Volume (H82 tumors; Table 33, Day 14.0, iv Days 0, 7, 14, 12-R 0.05 mg/kg, Compound D 0.5 mg/kg): 1041.6 mm^3 | Median Tumor Volume (H82 tumors; Table 33, Day 16.0, iv Days 0, 7, 14, 12-R 0.05 mg/kg, Compound D 0.5 mg/kg): 1151.2 mm^3 | Median Tumor Volume (H82 tumors; Table 33, Day 19.0, iv Days 0, 7, 14, 12-R 0.05 mg/kg, Compound D 0.5 mg/kg): 1516.7 mm^3 | Median Tumor Volume (H82 tumors; Table 33, Day 21.0, iv Days 0, 7, 14, 12-R 0.05 mg/kg, Compound D 0.5 mg/kg): 1748.0 mm^3 | Median Tumor Volume (H82 tumors; Table 57, Day 0, iv weekly, 47-R 0.1 mg/Kg, Compound D 0.5 mg/Kg): 169.4 mm^3 | Median Tumor Volume (H82 tumors; Table 57, Day 2, iv weekly, 47-R 0.1 mg/Kg, Compound D 0.5 mg/Kg): 340.6 mm^3 | Median Tumor Volume (H82 tumors; Table 57, Day 5, iv weekly, 47-R 0.1 mg/Kg, Compound D 0.5 mg/Kg): 443.3 mm^3 | Median Tumor Volume (H82 tumors; Table 57, Day 7, iv weekly, 47-R 0.1 mg/Kg, Compound D 0.5 mg/Kg): 496.2 mm^3 | Median Tumor Volume (H82 tumors; Table 57, Day 9, iv weekly, 47-R 0.1 mg/Kg, Compound D 0.5 mg/Kg): 614.1 mm^3 | Median Tumor Volume (H82 tumors; Table 57, Day 12, iv weekly, 47-R 0.1 mg/Kg, Compound D 0.5 mg/Kg): 665.5 mm^3 | Median Tumor Volume (H82 tumors; Table 57, Day 14, iv weekly, 47-R 0.1 mg/Kg, Compound D 0.5 mg/Kg): 1041.6 mm^3 | Median Tumor Volume (H82 tumors; Table 57, Day 16, iv weekly, 47-R 0.1 mg/Kg, Compound D 0.5 mg/Kg): 1151.2 mm^3 | Median Tumor Volume (H82 tumors; Table 57, Day 19, iv weekly, 47-R 0.1 mg/Kg, Compound D 0.5 mg/Kg): 1516.7 mm^3 | Median Tumor Volume (H82 tumors; Table 57, Day 21, iv weekly, 47-R 0.1 mg/Kg, Compound D 0.5 mg/Kg): 1748.0 mm^3 | Median Tumor Volume (H526 tumors; Table 32, Day 0.0, iv Days 0, 7, 14, 12-R 0.05 mg/kg, Compound D 0.5 mg/kg): 216.1 mm^3 | Median Tumor Volume (H526 tumors; Table 32, Day 2.0, iv Days 0, 7, 14, 12-R 0.05 mg/kg, Compound D 0.5 mg/kg): 240.9 mm^3 | Median Tumor Volume (H526 tumors; Table 32, Day 4.0, iv Days 0, 7, 14, 12-R 0.05 mg/kg, Compound D 0.5 mg/kg): 99.3 mm^3 | Median Tumor Volume (H526 tumors; Table 32, Day 7.0, iv Days 0, 7, 14, 12-R 0.05 mg/kg, Compound D 0.5 mg/kg): 56.7 mm^3 | Median Tumor Volume (H526 tumors; Table 32, Day 9.0, iv Days 0, 7, 14, 12-R 0.05 mg/kg, Compound D 0.5 mg/kg): 62.5 mm^3 | Median Tumor Volume (H526 tumors; Table 32, Day 11.0, iv Days 0, 7, 14, 12-R 0.05 mg/kg, Compound D 0.5 mg/kg): 62.5 mm^3 | Median Tumor Volume (H526 tumors; Table 32, Day 14.0, iv Days 0, 7, 14, 12-R 0.05 mg/kg, Compound D 0.5 mg/kg): 32.0 mm^3 | Median Tumor Volume (H526 tumors; Table 32, Day 16.0, iv Days 0, 7, 14, 12-R 0.05 mg/kg, Compound D 0.5 mg/kg): 4.0 mm^3 | Median Tumor Volume (H526 tumors; Table 32, Day 21.0, iv Days 0, 7, 14, 12-R 0.05 mg/kg, Compound D 0.5 mg/kg): 4.0 mm^3 | Median Tumor Volume (H526 tumors; Table 32, Day 28.0, iv Days 0, 7, 14, 12-R 0.05 mg/kg, Compound D 0.5 mg/kg): 4.0 mm^3 | Median Tumor Volume (H526 tumors; Table 32, Day 35.0, iv Days 0, 7, 14, 12-R 0.05 mg/kg, Compound D 0.5 mg/kg): 4.0 mm^3 | Median Tumor Volume (H526 tumors; Table 32, Day 42.0, iv Days 0, 7, 14, 12-R 0.05 mg/kg, Compound D 0.5 mg/kg): 4.0 mm^3 | Median Tumor Volume (H526 tumors; Table 32, Day 49.0, iv Days 0, 7, 14, 12-R 0.05 mg/kg, Compound D 0.5 mg/kg): 4.0 mm^3 | Median Tumor Volume (H526 tumors; Table 56, Day 0, iv weekly, 47-R 0.1 mg/Kg, Compound D 0.5 mg/Kg): 216.1 mm^3 | Median Tumor Volume (H526 tumors; Table 56, Day 2, iv weekly, 47-R 0.1 mg/Kg, Compound D 0.5 mg/Kg): 240.9 mm^3 | Median Tumor Volume (H526 tumors; Table 56, Day 4, iv weekly, 47-R 0.1 mg/Kg, Compound D 0.5 mg/Kg): 99.3 mm^3 | Median Tumor Volume (H526 tumors; Table 56, Day 7, iv weekly, 47-R 0.1 mg/Kg, Compound D 0.5 mg/Kg): 56.7 mm^3 | Median Tumor Volume (H526 tumors; Table 56, Day 9, iv weekly, 47-R 0.1 mg/Kg, Compound D 0.5 mg/Kg): 62.5 mm^3 | Median Tumor Volume (H526 tumors; Table 56, Day 11, iv weekly, 47-R 0.1 mg/Kg, Compound D 0.5 mg/Kg): 62.5 mm^3 | Median Tumor Volume (H526 tumors; Table 56, Day 14, iv weekly, 47-R 0.1 mg/Kg, Compound D 0.5 mg/Kg): 32.0 mm^3 | Median Tumor Volume (H526 tumors; Table 56, Day 16, iv weekly, 47-R 0.1 mg/Kg, Compound D 0.5 mg/Kg): 4.0 mm^3 | Median Tumor Volume (H526 tumors; Table 56, Day 21, iv weekly, 47-R 0.1 mg/Kg, Compound D 0.5 mg/Kg): 4.0 mm^3 | Median Tumor Volume (H526 tumors; Table 56, Day 28, iv weekly, 47-R 0.1 mg/Kg, Compound D 0.5 mg/Kg): 4.0 mm^3 | Median Tumor Volume (H526 tumors; Table 56, Day 35, iv weekly, 47-R 0.1 mg/Kg, Compound D 0.5 mg/Kg): 4.0 mm^3 | Median Tumor Volume (H526 tumors; Table 56, Day 42, iv weekly, 47-R 0.1 mg/Kg, Compound D 0.5 mg/Kg): 4.0 mm^3 | Median Tumor Volume (H526 tumors; Table 56, Day 49, iv weekly, 47-R 0.1 mg/Kg, Compound D 0.5 mg/Kg): 4.0 mm^3 | Median Tumor Volume (H526 tumors; Table 56, Day 56, iv weekly, 47-R 0.1 mg/Kg, Compound D 0.5 mg/Kg): 4.0 mm^3 | Median Tumor Volume (H526 tumors; Table 56, Day 63, iv weekly, 47-R 0.1 mg/Kg, Compound D 0.5 mg/Kg): 4.0 mm^3 | Median Tumor Volume (H526 tumors; Table 56, Day 70, iv weekly, 47-R 0.1 mg/Kg, Compound D 0.5 mg/Kg): 4.0 mm^3 | Median Tumor Volume (H526 tumors; Table 56, Day 77, iv weekly, 47-R 0.1 mg/Kg, Compound D 0.5 mg/Kg): 4.0 mm^3 | Median Tumor Volume (H526 tumors; Table 56, Day 84, iv weekly, 47-R 0.1 mg/Kg, Compound D 0.5 mg/Kg): 4.0 mm^3 | Median Tumor Volume (H526 tumors; Table 56, Day 91, iv weekly, 47-R 0.1 mg/Kg, Compound D 0.5 mg/Kg): 4.0 mm^3 | Median Tumor Volume (H526 tumors; Table 56, Day 98, iv weekly, 47-R 0.1 mg/Kg, Compound D 0.5 mg/Kg): 4.0 mm^3 | Median Tumor Volume (H526 tumors; Table 56, Day 105, iv weekly, 47-R 0.1 mg/Kg, Compound D 0.5 mg/Kg): 4.0 mm^3 | Median Tumor Volume (H526 tumors; Table 56, Day 112, iv weekly, 47-R 0.1 mg/Kg, Compound D 0.5 mg/Kg): 4.0 mm^3 | Median Tumor Volume (H526 tumors; Table 56, Day 119, iv weekly, 47-R 0.1 mg/Kg, Compound D 0.5 mg/Kg): 4.0 mm^3 | Median Tumor Volume (H526 tumors; Table 56, Day 126, iv weekly, 47-R 0.1 mg/Kg, Compound D 0.5 mg/Kg): 4.0 mm^3 | Median Tumor Volume (H526 tumors; Table 56, Day 133, iv weekly, 47-R 0.1 mg/Kg, Compound D 0.5 mg/Kg): 4.0 mm^3 | Median Tumor Volume (H526 tumors; Table 56, Day 140, iv weekly, 47-R 0.1 mg/Kg, Compound D 0.5 mg/Kg): 4.0 mm^3 | Median Tumor Volume (H526 tumors; Table 56, Day 147, iv weekly, 47-R 0.1 mg/Kg, Compound D 0.5 mg/Kg): 4.0 mm^3 | Median Tumor Volume (H526 tumors; Table 56, Day 165, iv weekly, 47-R 0.1 mg/Kg, Compound D 0.5 mg/Kg): 4.0 mm^3 | Median Tumor Volume (H526 tumors; Table 56, Day 175, iv weekly, 47-R 0.1 mg/Kg, Compound D 0.5 mg/Kg): 4.0 mm^3 | Median Tumor Volume (H526 tumors; Table 56, Day 191, iv weekly, 47-R 0.1 mg/Kg, Compound D 0.5 mg/Kg): 4.0 mm^3 | Median Tumor Volume (H526 tumors; Table 56, Day 205, iv weekly, 47-R 0.1 mg/Kg, Compound D 0.5 mg/Kg): 4.0 mm^3

Source: patent US10538535B2, “Antitumoral compounds” (priority 2017, dated 2020)
